Reference: patent US20200024278A1, “COMPOSITION COMPRISING ANTIBIOTIC COMPOUND AND AN HETEROCYCLIC COMPOUND AND THEIR USE IN PREVENTING OR TREATING BACTERIAL INFECTIONS” (MUTABILIS, priority 2016, published 2020)
Read-outs that look alike come from different tables or passages of the source.

Key:
KPN UFR68 = assay: Fractional Inhibitory Concentration Index, checkerboard assay; type: cell-based, K. pneumoniae
How it was run: (§1)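 Two-agent checkerboards of 2-fold dilutions in ca-MHB were inoculated at 5.10^5 CFU/mL and incubated 18 h at 35 °C in air, in duplicate; fosfomycin wells also held 25 μg/ml glucose-6-phosphate. FICI calculated as the sum of combination/alone MIC ratios for each drug.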

ABA UFR159 = assay: MIC, broth microdilution (CLSI), substance alone or ATB combined with compound at 4 or 8 μg/mL; type: cell-based, A. baumannii; details: substance alone
How it was run: (§2)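 CLSI M7-A7 broth microdilution. ca-MHB, 5·10^5 CFU/mL log-phase cells, 16-20 h, 35° C, ambient air. Fosfomycin wells + 25 μg/ml glucose-6-phosphate. Visual MIC read.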

ABA UFR153 = assay: as above; type: cell-based, A. baumannii; details: substance alone
How it was run: as §2

ABA UFR155 = assay: as above; type: cell-based, A. baumannii; details: substance alone
How it was run: as §2

ABA UFR157 = assay: as above; type: cell-based, A. baumannii; details: substance alone
How it was run: as §2

ABA UFR158 = assay: as above; type: cell-based, A. baumannii; details: substance alone
How it was run: as §2

ABA 19606 = assay: as above; type: cell-based, A. baumannii; details: substance alone
How it was run: as §2

ABA 107292 = assay: as above; type: cell-based, A. baumannii; details: substance alone
How it was run: as §2

ABA UFR156 = assay: as above; type: cell-based, A. baumannii; details: substance alone
How it was run: as §2

ABA UFR161 = assay: as above; type: cell-based, A. baumannii; details: substance alone
How it was run: as §2

ABA UFR151 = assay: as above; type: cell-based, A. baumannii; details: substance alone
How it was run: as §2

ABA UFR160 = assay: as above; type: cell-based, A. baumannii; details: substance alone
How it was run: as §2

ECL P99 = assay: Fractional Inhibitory Concentration Index, checkerboard assay; type: cell-based, E. cloacae
How it was run: as §1

PAE UFR48 = assay: as above; type: cell-based, P. aeruginosa
How it was run: as §1

PAE UFR90 = assay: as above; type: cell-based, P. aeruginosa
How it was run: as §1

ECO 190317 = assay: as above; type: cell-based, E. coli
How it was run: as §1

[1] = Acinetobacter baumannii, read-out: MIC

O=C(O)C(F)(F)F.O=C1N2C[C@H](c3scnc3[C@H]2c2ncc[nH]2)N1OS(=O)(=O)[O-].[Na+] (relative stereo) [Example 6, sodium and 2,2,2-trifluoroacetate [trans-7-(1H-imidazol-3-ium--2-yl)-9-oxo-3-thia-5,8,10-triaza-tricyclo[6.2.1.0^2,6]undeca-2(6),4-dien-10-yl]sulfate]
FIC index min (KPN UFR68; compound +ATM): 1.0
FIC index min (KPN UFR68; compound +FEP): 1.0
FIC index min (KPN UFR68; compound +FOS): 0.28
FIC index min (KPN UFR68; compound +MEM): 0.50
FIC index min (KPN UFR68; compound +PIP): ≤0.5
MIC (ABA UFR159): >32 µg/mL
MIC (ABA UFR153): 16 µg/mL
MIC (ABA UFR155): 16 µg/mL
MIC (ABA UFR157): 8 µg/mL
MIC (ABA UFR158): 16 µg/mL
MIC (ABA 19606): 16 µg/mL
MIC (ABA 107292): >32 µg/mL
MIC (ABA UFR156): 16 µg/mL
MIC (ABA UFR161): 32 µg/mL
MIC (ABA UFR151): 32 µg/mL
MIC (ABA UFR160): 16 µg/mL

NCCON=C1C[C@@H](C(N)=O)N2C[C@@H]1N(OS(=O)(=O)[O-])C2=O.[Na+] [Example 2, sodium and 2,2,2-trifluoroacetate [(2S,5S)-4-(2-ammonium-ethoxyimino)-2-carbamoyl-7-oxo-1,6-diazabicyclo[3.2.1]octan-6-yl] sulfate]
FIC index min (ECL P99; compound +ATM): 0.50
FIC index min (ECL P99; compound +FEP): 0.14
FIC index min (ECL P99; compound +FOS): ≤0.14
FIC index min (ECL P99; compound +MEM): 0.50
FIC index min (ECL P99; compound +PIP): 0.14
FIC index min (PAE UFR48; compound +ATM): 0.09
FIC index min (PAE UFR48; compound +FEP): 0.63
FIC index min (PAE UFR48; compound +FOS): 0.50
FIC index min (PAE UFR48; compound +MEM): 0.8
FIC index min (PAE UFR48; compound +PIP): 0.31
FIC index min (PAE UFR90; compound +ATM): ≤0.22
FIC index min (PAE UFR90; compound +FEP): ≤0.28
FIC index min (PAE UFR90; compound +FOS): ≤0.63
FIC index min (PAE UFR90; compound +MEM): ≤0.38
FIC index min (PAE UFR90; compound +PIP): ≤0.15
FIC index min (KPN UFR68; compound +ATM): 0.05
FIC index min (KPN UFR68; compound +FEP): ≤0.0098
FIC index min (KPN UFR68; compound +FOS): 0.25
FIC index min (KPN UFR68; compound +MEM): 0.03
FIC index min (KPN UFR68; compound +PIP): 0.09
MIC (ABA UFR159; [1]): > 32 µg/mL
MIC (ABA UFR153; [1]): > 32 µg/mL
MIC (ABA UFR155; [1]): > 32 µg/mL
MIC (ABA UFR157; [1]): > 32 µg/mL
MIC (ABA UFR158; [1]): > 32 µg/mL
MIC (ABA 19606; [1]): 16 µg/mL
MIC (ABA 107292; [1]): > 32 µg/mL
MIC (ABA UFR156; [1]): > 32 µg/mL
MIC (ABA UFR161; [1]): > 32 µg/mL
MIC (ABA UFR151; [1]): > 32 µg/mL
MIC (ABA UFR160; [1]): > 32 µg/mL
FIC index min (ECO 190317; compound +ATM): 0.08
FIC index min (ECO 190317; compound +FEP): ≤0.06
FIC index min (ECO 190317; compound +FOS): 0.56
FIC index min (ECO 190317; compound +MEM): 0.50
FIC index min (ECO 190317; compound +PIP): ≤0.25

O=C1N2CC(c3ncco3)=C[C@H](C2)N1OS(=O)(=O)[O-].[Na+] [Example 9, sodium [(5R)-3-(oxazol-2-yl)-7-oxo-1,6-diazabicyclo[3.2.1]oct-3-en-6-yl] sulfate]
FIC index min (ECL P99; compound +ATM): 0.53
FIC index min (ECL P99; compound +FEP): 0.23
FIC index min (ECL P99; compound +FOS): ≤0.19
FIC index min (ECL P99; compound +MEM): 0.88
FIC index min (ECL P99; compound +PIP): 0.20
FIC index min (PAE UFR48; compound +ATM): 0.14
FIC index min (PAE UFR48; compound +FEP): 0.50
FIC index min (PAE UFR48; compound +FOS): 1.0
FIC index min (PAE UFR48; compound +MEM): 0.8
FIC index min (PAE UFR48; compound +PIP): 0.32
FIC index min (PAE UFR90; compound +ATM): ≤0.30
FIC index min (PAE UFR90; compound +FEP): ≤0.27
FIC index min (PAE UFR90; compound +FOS): ≤0.52
FIC index min (PAE UFR90; compound +MEM): ≤0.53
FIC index min (PAE UFR90; compound +PIP): ≤0.23
FIC index min (KPN UFR68; compound +ATM): ≤0.27
FIC index min (KPN UFR68; compound +FEP): ≤0.05
FIC index min (KPN UFR68; compound +FOS): 0.50
FIC index min (KPN UFR68; compound +MEM): 0.15
FIC index min (KPN UFR68; compound +PIP): ≤0.27
MIC (ABA UFR159; [1]): > 32 µg/mL
MIC (ABA UFR153; [1]): > 32 µg/mL
MIC (ABA UFR155; [1]): > 32 µg/mL
MIC (ABA UFR157; [1]): > 32 µg/mL
MIC (ABA UFR158; [1]): > 32 µg/mL
MIC (ABA 19606; [1]): > 32 µg/mL
MIC (ABA 107292; [1]): > 32 µg/mL
MIC (ABA UFR156; [1]): > 32 µg/mL
MIC (ABA UFR161; [1]): > 32 µg/mL
MIC (ABA UFR151; [1]): > 32 µg/mL
MIC (ABA UFR160; [1]): > 32 µg/mL
FIC index min (ECO 190317; compound +ATM): 0.20
FIC index min (ECO 190317; compound +FEP): ≤0.07
FIC index min (ECO 190317; compound +FOS): 0.69
FIC index min (ECO 190317; compound +MEM): 0.58
FIC index min (ECO 190317; compound +PIP): ≤0.21

O=C1N2CC(n3ccnn3)=CC(C2)N1OS(=O)(=O)[O-].[Na+] (stereo not drawn) [Example 12, sodium [7-oxo-3-(triazol-1-yl)-1,6-diazabicyclo[3.2.1]oct-3-en-6-yl] sulfate]
MIC (ABA UFR159): >32 µg/mL
MIC (ABA UFR153): >32 µg/mL
MIC (ABA UFR155): >32 µg/mL
MIC (ABA UFR157): >32 µg/mL
MIC (ABA UFR158): >32 µg/mL
MIC (ABA 19606): 32 µg/mL
MIC (ABA 107292): >32 µg/mL
MIC (ABA UFR156): >32 µg/mL
MIC (ABA UFR161): >32 µg/mL
MIC (ABA UFR151): >32 µg/mL
MIC (ABA UFR160): >32 µg/mL

NC[C@H]1C=C(c2cnco2)[C@@H]2CN1C(=O)N2OS(=O)(=O)[O-].O=C(O)C(F)(F)F.[Na+] (relative stereo) [Example 1, sodium and 2,2,2-trifluoroacetate [trans-2-(azaniumylmethyl)-4-oxazol-5-yl-7-oxo-1,6-diazabicyclo[3.2.1]oct-3-en-6-yl] sulfate]
FIC index min (ECL P99; compound +ATM): 0.50
FIC index min (ECL P99; compound +FEP): 0.47
FIC index min (ECL P99; compound +FOS): ≤0.3125
FIC index min (ECL P99; compound +MEM): 0.56
FIC index min (ECL P99; compound +PIP): 0.50
FIC index min (PAE UFR48; compound +ATM): 0.25
FIC index min (PAE UFR48; compound +FEP): 0.53
FIC index min (PAE UFR48; compound +FOS): 0.62
FIC index min (PAE UFR48; compound +MEM): 0.27
FIC index min (PAE UFR48; compound +PIP): 0.27
FIC index min (PAE UFR90; compound +ATM): 0.54
FIC index min (PAE UFR90; compound +FEP): 0.50
FIC index min (PAE UFR90; compound +FOS): 1.0
FIC index min (PAE UFR90; compound +MEM): 0.75
FIC index min (PAE UFR90; compound +PIP): 0.88
FIC index min (KPN UFR68; compound +ATM): ≤0.023
FIC index min (KPN UFR68; compound +FEP): ≤0.0088
FIC index min (KPN UFR68; compound +FOS): ≤0.126
FIC index min (KPN UFR68; compound +MEM): ≤0.0098
FIC index min (KPN UFR68; compound +PIP): ≤0.012
MIC (ABA UFR159; [1]): > 32 µg/mL
MIC (ABA UFR153; [1]): > 32 µg/mL
MIC (ABA UFR155; [1]): > 32 µg/mL
MIC (ABA UFR157; [1]): > 32 µg/mL
MIC (ABA UFR158; [1]): > 32 µg/mL
MIC (ABA 19606; [1]): > 32 µg/mL
MIC (ABA 107292; [1]): > 32 µg/mL
MIC (ABA UFR156; [1]): > 32 µg/mL
MIC (ABA UFR161; [1]): > 32 µg/mL
MIC (ABA UFR151; [1]): > 32 µg/mL
MIC (ABA UFR160; [1]): > 32 µg/mL
FIC index min (ECO 190317; compound +ATM): 0.51
FIC index min (ECO 190317; compound +FEP): 0.49
FIC index min (ECO 190317; compound +FOS): 0.37
FIC index min (ECO 190317; compound +MEM): 0.63
FIC index min (ECO 190317; compound +PIP): ≤0.38
